# From patent US10076519B2 (CYTOKINETICS, INC., priority 2010, dated 2018)
# Tested on: rabbit skeletal myofibrils (fast skeletal myofibrils)
# Assay: Activation of fast skeletal myofibrils (PUMA assay, PK/LDH-coupled ATPase at pCa25)
# Type: biochemical
# Conditions: median AC1.4 class, procedure of Example 39
# Method: Preparation of Fast Skeletal Myofibrils.
# Rabbit skeletal myofibrils were prepared based upon the method of Herrmann et al. (Biochem. 32(28):7255-7263(1993). Myofibrils were prepared from rabbit psoas muscle purchased from Pel-Freez Biologicals (Arkansas) within 2 days of ordering, stored on ice. Minced muscle was homogenized in 10 volumes of ice-cold “standard” buffer (50 mM Tris, pH 7.4, 0.1M potassium acetate, 5 mM KCl, 2 mM DTT, 0.2 mM PMSF, 10 μM leupeptin, 5 μM pepstatin, and 0.5 mM sodium azide) containing 5 mM EDTA and 0.5% Triton X-100 using an Omni-Macro homogenizer. Myofibrils were recovered by low speed centrifugation (3000 rpm for 10 minutes) and washed 2 times in the Triton X-100 containing buffer to ensure removal of cellular membrane. Following the Triton washes, myofibrils were washed 3 times in “standard” buffer containing 2 mM magnesium acetate. A final wash in assay buffer (12 mM PIPES, pH 6.8, 60 mM KCl, 1 mM DTT) was performed and brought to 10% sucrose for flash freezing in liquid nitrogen and storage at −80° C.
# Activation of Fast Skeletal Myofibrils.
# Fast fiber activators were identified by measuring the enzymatic activity of muscle myofibril preparations using the proprietary PUMA™ (see, e.g., U.S. Pat. Nos. 6,410,254, 6,743,599, 7,202,051, and 7,378,254) assay system. Myofibril preparations consisted of rabbit skeletal muscle (approximately 90% fast fibers) that had been mechanically homogenized and washed with a detergent (triton X-100) to remove cellular membranes. This preparation retained all of the sarcomeric components in a native conformation and the enzymatic activity was still regulated by calcium. Compounds were tested using a myofibril suspension and a level of calcium sufficient to increase enzymatic activity of the myofibrils to 25% of their maximal rate (termed pCa25). Enzymatic activity was tracked via a pyruvate kinase and lactate dehydrogenase-coupled enzyme system. This assay regenerates myosin-produced ADP into ATP by oxidizing NADH, producing an absorbance change at 340 nm. The buffering system was 12 mM Pipes, 2 mM MgCl2, 1 mM DTT at pH 6.8 (PM12 buffer).
# Using procedures similar to those described herein, utilizing reagents and intermediates commercially available (e.g., Sigma-Aldrich, St. Louis, Mo.) or readily synthesized by one of skill in the art, the compounds in Table 2 were synthesized, characterized and tested. AC1.4 values were determined according to the procedure described in Example 39, and the reported median AC1.4 values are as follows: A=<1 uM; B=1-10 uM; C=10-20 uM; D=>20 uM.
row,Structure (SMILES),Mean AC1.4
1,CC(=O)c1ccc(NCC2(c3ncccc3F)CCC2)nn1,D (D=>20 uM)
2,NC(=O)c1cnn(Cc2ccc(NC3(c4ncccc4F)CCC3)nn2)c1,D (D=>20 uM)
3,CC(=O)N1CC(c2ccc(NCC3(c4ncccc4F)CCC3)nn2)C1,D (D=>20 uM)
4,CC(C)(O)C(N)c1ccc(-c2ccc(NCC3(c4ncccc4F)CCC3)nn2)cc1 (stereo not shown),D (D=>20 uM)
5,CC(C)(O)c1ncccc1-c1ccc(NCC2(c3ncccc3F)CCC2)nn1,D (D=>20 uM)
6,O=C(O)C1CN=C(c2ccc(NCC3(c4ncccc4F)CCC3)nn2)N1 (stereo not shown),D (D=>20 uM)
7,NC(=O)c1coc(-c2ccc(NCC3(c4ncccc4F)CCC3)nn2)n1,D (D=>20 uM)
8,NC(=O)c1cnc(-c2ccc(NCC3(c4ncccc4F)CCC3)nn2)o1,B (B=1-10 uM)
9,NC(=O)c1csc(-c2ccc(NCC3(c4ncccc4F)CCC3)nn2)n1,D (D=>20 uM)
10,NC(=O)C1CN=C(c2ccc(NCC3(c4ncccc4F)CCC3)nn2)N1 (stereo not shown),D (D=>20 uM)
11,CC(C)(O)c1ccc(NCC2(c3ncccc3F)CCC2)nn1,D (D=>20 uM)
12,NC(=O)CNc1ncc(-c2ccc(NCC3(c4ncccc4F)CCC3)nn2)cn1,C (C=10-20 uM)
13,NC(=O)C(N)c1cccc(-c2ccc(NCC3(c4ncccc4F)CCC3)nn2)c1 (stereo not shown),C (C=10-20 uM)
14,CC(C)(CO)Nc1ccc(-c2cccc(C(N)=O)c2)nn1,D (D=>20 uM)
15,NC(=O)c1cccc(-c2ccc(NC3(c4ccccc4F)CCC3)nn2)c1,A (A=<1 uM)
16,NC(=O)c1cccc(-c2ccc(NC3(c4ncccc4F)CCC3)nn2)c1,B (B=1-10 uM)
17,NC(=O)c1cccc(-c2ccc(NC3(c4cccc(F)c4)CCC3)nn2)c1,B (B=1-10 uM)
18,NC(=O)c1cccc(-c2ccc(NCC3(c4ncccc4F)CC(F)(F)C3)nn2)c1,B (B=1-10 uM)
19,NC(=O)c1cccc(-c2ccc(NC3(c4ccc(F)cc4)CCC3)nn2)c1,A (A=<1 uM)
20,COc1ccnc(C2(Nc3ccc(-c4cccc(C(N)=O)c4)nn3)CCC2)c1,D (D=>20 uM)
21,NC(=O)c1cccc(-c2ccc(NC3(c4ccc(F)cn4)CCC3)nn2)c1,B (B=1-10 uM)
22,NC(=O)c1cc(-c2ccc(NCC3(c4ncccc4F)CCC3)nn2)n[nH]1,B (B=1-10 uM)
23,NC(=O)c1cc(-c2ccc(NCC3(c4ncccc4F)CCC3)nn2)no1,A (A=<1 uM)
24,NC(=O)c1ncccc1-c1ccc(NCC2(c3ncccc3F)CCC2)nn1,C (C=10-20 uM)
25,N#Cc1ncccc1-c1ccc(NCC2(c3ncccc3F)CCC2)nn1,C (C=10-20 uM)
26,NC(=O)N1CC(c2ccc(NCC3(c4ncccc4F)CCC3)nn2)C1,D (D=>20 uM)
27,Cn1nc(-c2ccc(NCC3(c4ncccc4F)CCC3)nn2)cc1C(N)=O,B (B=1-10 uM)

row,Structure (SMILES),Mean AC1.4
1,NC(=O)c1cccc(-c2ccc(NC3(c4ccccc4)CCC3)nn2)c1,B (B=1-10 uM)
2,NC(=O)c1nc(-c2ccc(NCC3(c4ncccc4F)CCC3)nn2)c[nH]1,C (C=10-20 uM)
3,Cn1cc(-c2ccc(NCC3(c4ncccc4F)CCC3)nn2)nc1C(N)=O,D (D=>20 uM)
4,COc1cc(-c2ccc(NCC3(c4ncccc4F)CCC3)nn2)ccc1C(N)=O,B (B=1-10 uM)
5,COc1cc(-c2ccc(NCC3(c4ncccc4F)CCC3)nn2)ccc1C(=O)O,D (D=>20 uM)
6,NC(=O)c1ccc(-c2ccc(NCC3(c4ncccc4F)CCC3)nn2)cc1O,B (B=1-10 uM)
7,NC(=O)c1ccc(F)c(-c2ccc(NC3(c4ncccc4F)CCC3)nn2)c1,B (B=1-10 uM)
8,NC(=O)c1ccc(F)c(-c2ccc(NC3(c4ncccc4F)CCCC3)nn2)c1,A (A=<1 uM)
9,NC(=O)c1ccc(F)c(-c2ccc(NC3(c4ccc(F)cc4)CCC3)nn2)c1,A (A=<1 uM)
10,O=C1Cc2cc(-c3ccc(NCC4(c5ncccc5F)CCC4)nn3)ccc2N1,B (B=1-10 uM)
11,O=c1[nH][nH]c2ccc(-c3ccc(NCC4(c5ncccc5F)CCC4)nn3)cc12,A (A=<1 uM)
12,NC(=O)c1ncc(-c2ccc(NCC3(c4ncccc4F)CCC3)nn2)o1,B (B=1-10 uM)
13,NC(=O)c1cc(-c2ccc(NCC3(c4ncccc4F)CCC3)nn2)on1,B (B=1-10 uM)
14,O=C(O)c1cc(-c2ccc(NCC3(c4ncccc4F)CCC3)nn2)on1,D (D=>20 uM)
15,NC(=O)c1noc(-c2ccc(NCC3(c4ncccc4F)CCC3)nn2)n1,B (B=1-10 uM)
16,COc1ccc(-c2ccc(NCC3(c4ncccc4F)CCC3)nn2)cc1C(N)=O,B (B=1-10 uM)
17,CC(C)n1[nH]c(=O)c2cc(-c3ccc(NCC4(c5ncccc5F)CCC4)nn3)ccc21,C (C=10-20 uM)
18,CC(C)n1[nH]c2ccc(-c3ccc(NCC4(c5ncccc5F)CCC4)nn3)cc2c1=O,B (B=1-10 uM)
19,NC(=O)c1cc(-c2ccc(NCC3(c4ncccc4F)CCC3)nn2)ccc1O,A (A=<1 uM)
20,Cn1nc(C(N)=O)cc1-c1ccc(NCC2(c3ncccc3F)CCC2)nn1,B (B=1-10 uM)
21,COc1ccc(-c2ccc(NCC3(c4ncccc4F)CCC3)nn2)cc1C(=O)O,D (D=>20 uM)
22,Oc1ccc(-c2ccc(NCC3(c4ncccc4F)CCC3)nn2)nc1,A (A=<1 uM)
23,O=C1Cc2ccc(-c3ccc(NCC4(c5ncccc5F)CCC4)nn3)cc2N1,B (B=1-10 uM)
24,CNC(=O)Nc1cccc(-c2ccc(NCC3(c4ncccc4F)CCC3)nn2)c1,A (A=<1 uM)
25,CC(=O)Nc1ccc(-c2ccc(NCC3(c4ncccc4F)CCC3)nn2)cc1,A (A=<1 uM)
26,CNC(=O)Nc1ccc(-c2ccc(NCC3(c4ncccc4F)CCC3)nn2)cc1,A (A=<1 uM)
27,CC(=O)Nc1ncc(-c2ccc(NCC3(c4ncccc4F)CCC3)nn2)cn1,C (C=10-20 uM)

row,Structure (SMILES),Mean AC1.4
1,COC(=O)Nc1ncc(-c2ccc(NCC3(c4ncccc4F)CCC3)nn2)cn1,D (D=>20 uM)
2,NC(=O)[C@H]1C[C@@H]1c1ccc(NCC2(c3ncccc3F)CCC2)nn1,D (D=>20 uM)
3,NC(=O)[C@@H]1C[C@@H]1c1ccc(NCC2(c3ncccc3F)CCC2)nn1,D (D=>20 uM)
4,OCc1ncccc1-c1ccc(NCC2(c3ncccc3F)CCC2)nn1,C (C=10-20 uM)
5,CS(=O)(=O)Nc1ncc(-c2ccc(NCC3(c4ncccc4F)CCC3)nn2)cn1,D (D=>20 uM)
6,CC(C)(Nc1ccc(-c2ccc(N)nc2)nn1)c1ccccc1,B (B=1-10 uM)
7,Fc1cccnc1C1(CNc2ccc(-c3ccc(NCC4(c5ncccc5F)CCC4)nn3)nn2)CCC1,D (D=>20 uM)
8,NC(=O)NC1CC(c2ccc(NCC3(c4ncccc4F)CCC3)nn2)C1 (stereo not shown),C (C=10-20 uM)
9,NC(=O)N[C@H]1C[C@@H](c2ccc(NCC3(c4ncccc4F)CCC3)nn2)C1,B (B=1-10 uM)
10,NC(=O)Nc1ccc(-c2ccc(NCC3(c4ncccc4F)CC(F)(F)C3)nn2)cc1,A (A=<1 uM)
11,NC(=O)Nc1ccc(-c2ccc(NC3(c4ccc(F)cc4)CCC3)nn2)cc1,A (A=<1 uM)
12,NC(=O)Nc1ccc(-c2ccc(NCC3(c4ncccc4F)CCC3)nn2)cc1,A (A=<1 uM)
13,NC(=O)NC1CC=C(c2ccc(NCC3(c4ncccc4F)CCC3)nn2)CC1 (stereo not shown),B (B=1-10 uM)
14,NC(=O)Nc1ccc(-c2ccc(NCC3(c4ncccc4F)CCC3)nn2)cn1,B (B=1-10 uM)
15,NC(=O)Nc1ncc(-c2ccc(NCC3(c4ncccc4F)CCC3)nn2)cn1,D (D=>20 uM)
16,NC(=O)Nc1n[nH]c2ccc(-c3ccc(NCC4(c5ncccc5F)CCC4)nn3)cc12,A (A=<1 uM)
17,CCOC(=O)C(C(=O)OCC)c1ccc(NCC2(c3ncccc3F)CCC2)nn1,D (D=>20 uM)
18,CCOC(=O)c1cc(-c2ccc(NCC3(c4ncccc4F)CCC3)nn2)on1,D (D=>20 uM)
19,CCOC(=O)c1ccc(NCC2(c3ncccc3F)CCC2)nn1,D (D=>20 uM)
20,COC(=O)c1coc(-c2ccc(NCC3(c4ncccc4F)CCC3)nn2)n1,D (D=>20 uM)
21,COC(=O)C1CN=C(c2ccc(NCC3(c4ncccc4F)CCC3)nn2)N1 (stereo not shown),D (D=>20 uM)
22,COC(=O)N1CC(c2ccc(NCC3(c4ncccc4F)CCC3)nn2)C1,D (D=>20 uM)
23,COC(=O)c1ncccc1-c1ccc(NCC2(c3ncccc3F)CCC2)nn1,C (C=10-20 uM)
24,O=C(OCc1ccccc1)N1CC(c2ccc(NCC3(c4ncccc4F)CCC3)nn2)C1,D (D=>20 uM)
25,CC(C)(C)OC(=O)N1CCN(c2ncc(-c3ccc(NCC4(c5ncccc5F)CCC4)nn3)cn2)CC1,D (D=>20 uM)
